Experiments:
[1] = tested on: CCRF-CEM cells; experiment: growth inhibition of CCRF-CEM cell line in culture; format: cell-based; details: Homo sapiens; CCRF-CEM cells, in vitro; read-out: ID50 (dose required to inhibit growth of the cultures by 50% relative to control)
Source text: The in vitro assays measure the growth inhibiting activity of the materials against the CCRF-CEM cell line in culture. […] The in vivo evaluations were made by preparing a 0.2 to 0.7% by weight solution of the active agent in a formulation consisting of 10% by volume of each polyethoxylated castor oil and ethanol in saline and injecting the dosage intraperitoneally. The evaluations were made of the antitumor activity against the murine P388 and murine L1210 leukemias in BDF1 male mice according to standard National Cancer Institute protocols as set forth by Geran et al., Cancer Chemotherap. Rep., Part 3, Volume 3, pages 1 et seq.

[2] = tested on: murine P388 leukemia; experiment: in vivo antitumor activity against murine P388 leukemia, ip qd 1-4; design: species or system mouse (BDF1 male mice); details: 10% Emulphor EL-620, 10% ethanol, 80% saline
Protocol: (§1) The toxicity and therapeutic effectiveness of the new compounds and active agents of the present invention are shown by in vitro assays and by in vivo evaluations in mice. The in vitro assays measure the growth inhibiting activity of the materials against the CCRF-CEM cell line in culture. The cell line was derived from the peripheral blood of a child with lymphoblastic leukemia as described by Foley et al., Cancer, Volume 18, page 522 et seq. (1965), and the assays were carried out by the procedure of Foley and Lazarus, Biochem. Pharmacol., Volume 16, pages 659 et seq. (1967), the results being reported in terms of the dose in micromoles per liter required to inhibit growth of the cultures by 50% relative to control cultures to which no drug had been added (ID50). The in vivo evaluations were made by preparing a 0.2 to 0.7% by weight solution of the active agent in a formulation consisting of 10% by volume of each polyethoxylated castor oil and ethanol in saline and injecting the dosage intraperitoneally. The evaluations were made of the antitumor activity against the murine P388 and murine L1210 leukemias in BDF1 male mice according to standard National Cancer Institute protocols as set forth by Geran et al., Cancer Chemotherap. Rep., Part 3, Volume 3, pages 1 et seq. (1972) , except that a qd 1-4 schedule was used in place of qd 1-9 in order to conserve materials.
(§2) Optimal dosage was determined by testing doses which were at several multiples of 10 milligrams/kilogram of body weight. Some effectiveness can be observed at dosages ranging from 30 to 70 milligrams/kilogram of body weight, depending upon the particular compound employed.
The following table summarizes the in vivo antitumor activity of the same compounds as those in Table I, evaluated against murine P388 leukemia as described above. All compounds were administered intraperitoneally, adriamycin in clinical formulation (1 part adriamycin plus 5 parts lactose, in 0.9% saline), the other compounds in 10% Emulphor EL-620, 10% ethanol, 80% isotonic saline.

[3] = tested on: murine L1210 leukemia; experiment: in vivo antitumor activity against L1210 leukemia, ip days 1-4; design: species or system mouse (BDF1 male mice); details: 10% Emulphor EL-620, 10% ethanol, 80% isotonic saline
Protocol: as §1, §2
All compounds were administered intraperitoneally; in tests (1) and (2), the compounds were in 10% Emulphor EL-620, 10% ethanol, and 80% isotonic saline. In test (3) the compound was in aqueous buffer containing monobasic potassium phosphate and sodium hydroxide (0.05 M), pH 7.40: […]

[4] = pH 7.4
[5] = cited from earlier work
[6] = cited from earlier work; remark: listed apart in the source
[7] = animals and human clinical tests

## CCCCC(=O)OCC(=O)C1(O)Cc2c(O)c3c(c(O)c2C(OC2CC(NC(=O)C(F)(F)F)C(O)C(C)O2)C1)C(=O)c1c(OC)cccc1C3=O (stereo not shown) [N-Trifluoroacetyladriamycin-14-valerate]
[1]
  IC50: 240 nM
[2]; each dose 20.0 mg/kg ip
  % ILS (percent increase in life span relative to untreated controls): 281%
  No. alive on d 30: 5/7
  No. alive on d 60: 3/7
  Survival, Median day of death (range): 42.0 (21-42) day
[2]; each dose 30.0 mg/kg ip
  No. alive on d 30: 4/7
  No. alive on d 60: 4/7
  Survival, day of death (range only, no median): 21 to 26 days
[2]; each dose 40.0 mg/kg ip
  No. alive on d 30: 6/7
  No. alive on d 60: 6/7
  Survival, day of death (range only, no median): 30,71 day
[2]; each dose 50.0 mg/kg ip
  % ILS (percent increase in life span relative to untreated controls): 763%
  No. alive on d 30: 5/7
  No. alive on d 60: 5/7
  Survival, Median day of death (range): 95.0 (24-95) day
[2]; each dose 60.0 mg/kg ip
  % ILS (percent increase in life span relative to untreated controls): 718%
  No. alive on d 30: 5/7
  No. alive on d 60: 5/7
  Survival, Median day of death (range): 90.0 (9-90) day
[3]; 50.0 mg/kg/d × 4 ip
  % ILS (percent median increase in life span relative to untreated controls, calculated as of day 50): > 456%
  No. alive on d 50: 5/7
[3]; 60.0 mg/kg/d × 4 ip
  % ILS (percent median increase in life span relative to untreated controls, calculated as of day 50): > 456%
  No. alive on d 50: 6/7
[4]
  solubility in water (in words): a few micrograms
[5]
  water solubility: essentially water-insoluble
[6]; [7]
  cardiotoxicity relative to parent drug: significantly less cardiotoxic than the parent drug
  toxicity in general relative to parent drug: less toxic in general
[6]; human, in vivo
  therapeutic effect relative to adriamycin and daunomycin: therapeutically superior to adriamycin and to daunomycin
